Values joined by “and” are separate entries in the source; they are usually repeats but may differ in a detail not shown here. Equal values may be shown once. Where no end group is shown, it is not given here.
Experiments:
[1] = tested on: LHRH-stimulated release of LH from pituitary cells; assay: Reverse hemolytic plaque assay, LHRH-stimulated LH release from pituitary cells; format: cell-based, rat; details: Exp. 1 (Pre); 5x10^-10 M LHRH + peptide 10^-4 M
Experimental: A reverse hemolytic plaque assay (Smith, et al.), Method in Enzymology, 124, p.
Plaques were analyzed by determining plaque area with an image analysis (Bioguant or Image Technology Corp. Model 300) of ^125×-500 × microscopic enlargements.

I^125 ACTH (1-39) = biological target: T1, I^125 ACTH (1-39) (Homo sapiens, UniProt P01189); assay: 125I-ACTH binding to peptide-coated microtiter wells; details: for Bound CPM 125I-ACTH: coated wells; for Bound CPM 125I-ACTH + excess ACTH: excess unlabelled ACTH
T1 construct: I^125 ACTH (1-39) (New England Nuclear Boston, Mass.); purchased New England Nuclear, Boston, Mass
T1 sequence (P01189 138-176 limits assumed): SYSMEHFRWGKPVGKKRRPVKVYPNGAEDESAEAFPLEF
Experimental: Utilizing techniques described in Example 1B, polyvinyl microtiter wells were coated with 3'-5' HTCA from a 1 mM solution thereof or with BSA.
The BSA and 3'-5' HTCA coated wells were washed and then treated with one of three solutions of I^125 ACTH (1-39) (New England Nuclear Boston, Mass.) having different concentrations. After a forty five minute incubation period the solution was removed and the microtiter wells extensively washed. The microtiter wells were separated and assayed for iodine^125 content in a Beckman Gamma 5500 gamma counter. Bound ^125 I-ACTH was measured in duplicate at three concentrations in the absence and presence of excess unlabelled ACTH.
Utilizing the cRNA sequence and HTCA sequence shown in Table 8 of Example 1A, a series of peptides having a carboxy-terminal portion of the HTCA amino acid were synthesized. A pentamer (5-mer) contained the amino acid sequence: H^2 N-Phe-His-Gly-Val-Arg-COOH. A decamer (10-mer) contained the amino acid sequence: H^2 N-[…]COOH. A twenty membered peptide (20-mer) contained the amino acids sequence: H2 N-[…] Val-ArQ-COOH. Each of these peptides was used to coat microtiter wells and the coated wells tested for the ability to hind ^125 I-ACTH as described in Example 1C.
A 24-mer HTCA variant (R-HTCA) with reversed amino acid sequence directionality (amino-terminal and carboxy-terminal ends being reversed) was synthesized and had the following sequence: H2 N-[…] Arg-His-Leu-His-Val-Gly-COOH. The well-coating and ^125 I-ACTH binding procedures were performed as described in Example 1-C and the resultant data shown in Table 11.

angiotensin II receptors = assay: Binding of [125I] angiotensin II to isolated hepatic receptor; parameters: species or system Rabbit; details: concentration inhibiting binding of radiolabelled angiotensin II by 50%; 0.25 nM [125I] angiotensin II; 60 minutes 20 C
Experimental: Inhibition of angiotensin II binding to angiotensin II receptors by complementary peptides was tested with measurement through the use of radioactive angiotensin II. Rabbit livers were homogenized, and were centrifuged in order to isolate particles sedimenting between 1,000 and 100,000 xg. Binding activity was solublized with 1% digitonin, followed by ammonium sulfate fractionation between 49 and 65% satuation followed by DEAE- cellulose chromatography at pH 7.5 using a linear gradient between 0.0 and 0.3 M KCl. The partially purified, solubilized receptor preparation bound 17 pmoles of angiotensin II per […] protein when analyzed by Scatchard analysis, indicating a purity of approximately 0.1%.
The standard assay for binding of angiotensin II to the receptor is as follows: The complete system (150 ul) contains 30 mM Tris-HCl, pH 7.5, 2.5 mM K2 EDTA, 0.2 mM PCMS, 0.25 nM [^125 I] angiotensin II ca. 100,000 cpm), 100 ug BSA, 0.25% (V/V) Brij 99 and 30 ug of partially purified receptor. […] Tubes are vortexed and then allowed to stand 10 minutes at 4° C., after which they are centrifuged and their supernatants, containing protein-bound angiotensin II, are counted.
The complete system under these conditions regularly yields about 10,000 cpm of bound radioactivity. […] Residual binding of radioactivity in this control was 35-45%. […]

ACTH (1-24) = biological target: T2, ACTH (1-24) (Homo sapiens, UniProt P01189); assay: ELISA binding of ACTH (1-24) to HTCA-coated microtiter wells
T2 construct: 10 ug synthetic ACTH (1-24) in PBS-Tween buffer; purchased Organon (West Orange, N.J.); host or cells: chemical synthesis
Experimental: From 1 to 25 micrograms (ug) per well of HTCA or insulin in carbonate-bicarbonate coating buffer were added to 96 well round bottom microtiter plates and incubated at 4° C. for 8 hr. The plates were then washed with phosphate buffered saline PBS)-Tween 20 (Sigma Chemical Co., St. Louis, Mo.) buffer.
To the insulin-coated wells and to some of the HTCA-coated wells was added 10 ug synthetic ACTH (1-24) in PBS-Tween buffer. Control wells (HTCA alone) contained only PBS-Tween. The plates were incubated at room temperature for 2 hr. and then washed three times with PBS-Tween buffer. […] Following 3 washes with PBS-Tween buffer, alkaline phosphatase-conjugated goat anti-rabbit Ig G (Miles Laboratories, Elkharbt, Ind.) in PBS-Tween buffer (1:300 dilution was added. After inculation at room temperature for 1 hr, the plates were washed three times with PBS-Tween buffer and each well was treated with 200 microliters (ul) of p-nitrophenyl phosphate (1 mg/ml in carbonate-bicarbonate buffer) for 11/2 hr. at room temperature. The enzymatic reaction was then stopped by the addition of 3N NaOH (50 ul) to each well and the optical absorbance of p-nitrophenol the alkaline phosphatase product, was measured at 405 nm. The ACTH bound to the coated microtiter wells was measured by this enzyme-linked immunoabsorbent assay (EL1SA). […]

Bound CPM 125I-ACTH (I^125 ACTH (1-39); 1:3 dilution 125I-ACTH)	Bound CPM 125I-ACTH + excess ACTH (I^125 ACTH (1-39); 1:3 dilution 125I-ACTH)	Bound CPM 125I-ACTH (I^125 ACTH (1-39); 1:9 dilution 125I-ACTH)	Bound CPM 125I-ACTH + excess ACTH (I^125 ACTH (1-39); 1:9 dilution 125I-ACTH)	Bound CPM 125I-ACTH (I^125 ACTH (1-39); conc 125I-ACTH)	Bound CPM 125I-ACTH + excess ACTH (I^125 ACTH (1-39); conc 125I-ACTH)	Compound	other results
–	–	–	–	–	–	C[C@H](N)C(=O)NCC(=O)N[C@H]1CSSC[C@@H](C(=O)O)NC(=O)[C@H](CO)NC(=O)[C@H]([C@@H](C)O)NC(=O)[C@H](Cc2ccccc2)NC(=O)[C@H]([C@@H](C)O)NC(=O)[C@H](CCCCN)NC(=O)[C@H](Cc2c[nH]c3ccccc23)NC(=O)[C@H](Cc2ccccc2)NC(=O)[C@H](Cc2ccccc2)NC(=O)[C@H](CC(N)=O)NC(=O)[C@H](CCCCN)NC1=O [Somatostatin]	plaque area, percentage response to control (5x10^-10 M LHRH) [1]: 103%
3391 CPM and 2931 CPM	132 CPM and 143 CPM	872 CPM and 1062 CPM	62 CPM and 58 CPM	8,927 CPM and 9,072 CPM	345 CPM and 350 CPM	APAEVFHGVR [10-mer]	–
–	–	–	–	–	–	Ac-KGVYIHAL-NH2 [CCA-AII (Ac, Am), Ac--LYS--GLY--VAL--TYR--ILE--HIS--ALA--LEU--Am]	ID50 (angiotensin II receptors): 3,100 nM
3,514 CPM and 3,655 CPM	97 CPM and 95 CPM	995 CPM and 993 CPM	56 CPM and 52 CPM	10,252 CPM and 11,388 CPM	233 CPM and 245 CPM	FHGVR [5-mer, H^2 N-Phe-His-Gly-Val-Arg-COOH]	–
–	–	–	–	–	–	GLUGLU-VAL-LYS-GLY-VAL-TYR-ILE-HIS-ALA-LEU (EEVKGVYIHAL; printed: GLUGLU-VAL-LYS-GLY-VAL-TYR-ILE-HIS-ALA-LEU) [CCA-AI]	ID50 (angiotensin II receptors): 490 nM
–	–	–	–	–	–	GVHLHRAPLLAHRLAPAEVFHGVR [HTCA]	specific part of ACTH-HTCA binding (ACTH (1-24); wells coated 3.7 nmol/well HTCA, ELISA): about 90%
613 CPM and 625 CPM	113 CPM and 83 CPM	238 CPM and 215 CPM	39 CPM and 48 CPM	1978 CPM and 1768 CPM	229 CPM and 213 CPM	HRAPLLAHRLAPAEVFHGVR [20-mer]	–
590 CPM	287 CPM and 299 CPM	–	191 CPM and 183 CPM	–	616 CPM and 615 CPM	RMRYLVKATPFGHPFFAAGHFHMG [3'-5' HTCA]	binding of 125I-ACTH to coated peptide (in words) (I^125 ACTH (1-39)): binds
2,997 CPM and 3,209 CPM	140 CPM and 121 CPM	1,101 CPM and 1,161 CPM	65 CPM and 69 CPM	10,392 CPM and 10,709 CPM	303 CPM and 325 CPM	RVGHFVEAPALRHALLPARHLHVG [R-HTCA]	binding of 125I-ACTH to coated peptide (in words) (I^125 ACTH (1-39)): significant affinity for ACTH
–	–	–	–	–	–	insulin: control coating protein [reference compound]	binding of synthetic ACTH (1-24) to coated wells (ACTH (1-24); 10 ug ACTH (1-24), coating 1 to 25 ug/well): nor does ACTH bind
